{"source": "patent US8734775B2", "about": "“Chemokine derived peptides that bind with chemokine receptor CXCR3 and uses for chronic wound and angiogenesis inhibition treatments” (University of Pittsburgh, priority 2011, dated 2014)", "format_in_all_cases": "cell-based, human", "key": {"[1]": {"tested_on": "HMEC-1 cells", "assay": "Tube dissociation assay on GFR-Matrigel", "conditions": "IP-10dp 10 μM", "method": "For this tube dissociation assay, HMEC-1 cells were first re-suspended in 1% FBS MCDB131 media containing VEGF (75 ng/ml) and incubated on GFR-Matrigel for 24 hrs at 37° C. to allow tube formation (the average result reflected labeled “24 VEGF . . . ” in FIG. 5B). The media was removed and replaced with combinations of VEGF (75 ng/ml), IP-10 (300 ng/ml), or IP-10dp (10 μM) then incubated for another 24 hours. After 48 hours, tubes were still present in the controls treated only with VEGF (labeled 48 hr VEGF in FIG. 5B).\nThe cells cultures were imaged to assess tube formation using similar procedures to that described above for Experiment 3. […]\nAgain, quantification of the endothelial tube area for the various cell cultures was determined using MetaMorph, and the data reported in the graph are of at least N=6 and normalized to no treatment (average±SEM), with *P<0.05."}, "[2]": {"tested_on": "HMEC-1 cells treated with CXCR3 siRNA", "assay": "Tube formation in CXCR3 siRNA-treated cells", "conditions": "CXCR3 knockdown; concentrations as in Experiment 3", "method": "In the various experiments detailed below, unless otherwise noted, siRNA down regulation of CXCR3 was accomplished according to the following procedure. HMEC-1 cells were plated at 5.5×10^5 cells/60 mm dish and incubated overnight. The cells were 90-95% confluent. Cells were transfected with 4 μM siRNA (2 μM Sigma, 2 μM Santa Cruz) using Dharamacon #4 transfection reagent. The cells were incubated for 24 hours, and then placed in EGM-2MV media for 48 hours. The cells were then transfected again as indicated above. After 48 hours of incubation in EGM-2MV media the cells were then used for experimentation.\nIn the various experiments described below, to the extent not otherwise noted, CXCR3 siRNA transfection was preformed according to the procedure as previously described by Koh et al. (“Methods in Enzymology,” 2008, vol 443, p. 84), and summarized briefly as follows. HMEC-1 cells were plated in 6 well tissue culture plate at 4.0×10^5 cells/well in complete MCDB131 media and incubated overnight. The cells were ˜75% confluent. The media was removed and replaced with serum free Opti-Mem and incubated for 30 minutes. Dharmafect #4 was added to Opti-Mem to a final concentration of 2.5% (final volume […]) then incubated for 5 minutes at room temp. In parallel, CXCR3 siRNA was diluted in Opti-Mem to a final concentration of […] then incubated for 5 minutes at room temp. […]"}, "[3]": {"tested_on": "cAMP production in HMEC-1 cells", "assay": "cAMP enzyme immunoassay in endothelial cells", "method": "Thus, an experiment was conducted to determine if stimulation of endothelial cells with IP-10dp would induce an increase in cAMP. HMEC-1 cells were plated in 10 mm culture dishes and grown to confluency in complete growth media. The cells were then incubated in serum-reduced media (0.5% dialyzed FBS for HMEC-1 cells) for 24 hours at 37° C. The cells were then washed once with PBS and incubated in serum-free media. The cells were then stimulated with forskolin ([…]), VEGF (100 ng/ml), IP-10 (200 ng/ml), IP-10dp (10 μM) alone or in various combinations. The media was removed and ice cold 80% ethanol was added and the cells incubated on ice for 15 minutes. The extracts were evaluated and quantified for total cAMP production by using a cAMP enzyme immunoassay kit provided by Sigma-Aldrich Corp., of St. Louis, Mo., according to the manufacturer's protocol."}}}
{"sequence": "PESKAIKNLLKAVSKEMSKRSP (IP-10dp; listed as Homo sapiens) [synthetic fragment of IP-10 comprising residues 78-98, the C-terminal α-helical domain]", "values": [{"measurement": "endothelial cords following treatment", "setting": "[1]; 24-48 hrs", "result": "significant decrease in endothelial cords"}, {"measurement": "dissociation of newly formed tubes", "setting": "[1]; treatment 24-48 hrs, presence and absence of VEGF, IP-10 300 ng/ml", "result": "induce dissociation of newly formed tubes"}, {"measurement": "formation of tubes in CXCR3 siRNA-treated cells", "setting": "[2]", "result": "did not show a significant difference"}, {"measurement": "increase in cAMP production compared to control and VEGF treated cells", "setting": "[3]; IP-10dp 10 μM", "result": "2-3 fold"}, {"measurement": "cAMP production with VEGF plus IP-10dp compared to VEGF alone", "setting": "[3]; VEGF 100 ng/ml plus IP-10dp 10 μM", "result": "significant increase in cAMP production"}]}
